From PMC11232401, “Characterization of antimalarial activity of artemisinin-based hybrid drugs” (Antimicrobial Agents and Chemotherapy, 2024)
Like-named read-outs stand apart in the source and are kept apart here. Blank lines part the entries; values can stand above or below the compound they belong to.

Key:
[1] = system: 3D7 strain of P. falciparum; experiment: Host cell-mediated drug degradation: antiplasmodial activity of uRBC supernatants; type: cell-based, Plasmodium falciparum; conditions: for IC50: Plasmodium falciparum, 3D7, 0.16 h, 500 nM drug, 3D7, SYBR Green I, median ± SEM (AQ mean, 95% CI), read-out: IC50 of supernatants harvested at 0.16 h; for Fold changes (24 h/0.16 h): 3D7, ratio of IC50 at 24 h to IC50 at 0.16 h
Experimental: Each well of 96-well plates was filled with 125 µL drug (1000 nM) and 125 µL uninfected red blood cells (uRBC), which were mixed to obtain a final drug concentration of 500 nM and 2.5% or 1.0% hematocrit. The plates were incubated at 37°C in the standard gas mixture. After each time point (10 min, 6 h, and 24 h), supernatants were carefully harvested and stored at −80°C until use. […] Next, supernatants were diluted in a complete medium in six different dilutions and were aliquoted in new plates. The antimalarial activity of these supernatants and freshly dissolved drugs was determined in an asynchronous parasite culture of P. falciparum (3D7, D10, and W2 strains) for 72 h using the same method described above, and parasite viability was assessed by the pLDH ([38]) and SYBR Green I ([41]) methods. Only the experiments where the IC50 values of the supernatants harvested at 10 min were the same as those of the respective fresh drugs were considered for determining equivalent drug concentration. […] Decay in drug concentration was estimated by using the normalized slope values calculated from linear regression fits using the slope values of a standard curve as reference. Three independent experiments were performed using two replicates.
Figure S5: Data associated to Figure 3 in the main text of the manuscript. Panel A: Representative response-concentration curves of the antiplasmodial activity of supernatant-derived uRBC (2.5% hematocrit) harvested at indicated times (0.16, 6, and 24 h). Drug activity on parasite viability was determined 72 h after parasite incubation (3D7 strain, asynchronous). Values were subtracted from control (without treatment), transformed, and normalized to calculate nonlinear fit. Parasite viability was determined by SYBR Green I. Values are mean and error bars are the standard deviation of a single experiment, each concentration in duplicate. […] Footnotes: ^[a] Parasite viability was determined by SYBR Green I. ^[b^] Parasite viability was determined by pLDH readout. Values are median ± SEM of three independent experiments, each concentration in duplicate. ^[c^] […] These values are expressed as mean and 95% confidence interval (CI) of one experiment, each concentration in duplicate. […] Unpaired two-tailed t-test at 95% CI: *p <0.05; **p <0.01.

[2] = system: quiescent ART-resistant parasites (F32-ART); experiment: Quiescent-stage survival assay (QSA); type: cell-based, Plasmodium falciparum; conditions: threshold of activity 6 days
Experimental: The QSA was performed as previously described to determine the drug activity on quiescent ART-resistant parasites ([11]). F32-ART culture parasites were synchronized at the ring stage and adjusted to 3% parasitemia and 2% hematocrit. […] At the end of treatment, parasites from each of the three conditions were washed with RPMI-1640 medium and replaced in new wells in a drug-free culture medium with 10% human serum. Parasitemia was determined daily by thin blood smears until the cultures reached their initial parasitemia (3%), which was defined as the recrudescence day ([11]). The recrudescence capacity of parasites exposed in conditions A and B was compared to determine whether the drug was active on quiescent parasites. Condition C was designed to check that the concentration at which the drug was tested acted on proliferating parasites. If no parasite recrudescence was observed, the experiment was stopped.

[3] = system: Asynchronous NF54 strain of P. falciparum; experiment: Speed of drug activity (pLDH); type: cell-based, Plasmodium falciparum; conditions: for IC50: Plasmodium falciparum, NF54, asynchronous, mean (95% CI)
Experimental: Each well of 96-well plates was filled with 100 µL drug and 100 µL culture containing asynchronous P. falciparum (NF54 strain) parasites, which were mixed to obtain a final parasitemia of 1.0% to 1.5% and 1.0% hematocrit. The plates were incubated for 24, 48, and 72 h at 37°C with a standard gas mixture. […] Parasite viability was measured using the pLDH method, and IC50 values were calculated as described above. Three independent experiments were performed using two technical replicates.
Figure S3: Speed of antiparasitic activity of hybrids (1) and (2) against CQ-sensitive NF54 strain of P. falciparum. Panel A: Representative response-concentration curves. Panel B: A table summarizing the results. Footnotes for table: ^[a] Parasite viability was accessed at each indicated time (24, 48, or 72 h) after addition of drugs. Values are the mean and 95% confidence interval of one experiment using each concentration of compounds in duplicate. Parasite viability was determined by parasite lactate dehydrogenase (pLDH) assay. DHA = dihydroartemisinin; ATO = atovaquone.

[4] = In vitro metabolic stability assay in microsomes; type: in vitro ADME; conditions: for half-life at 1 µM: read-out: Degradation half-life; for microsomal CLint at 1 µM: 0.4 mg/mL
Experimental: In vitro microsomal stability assay was performed in duplicate in a 96-well microtiter plate, using a single-point experiment design ([42]). Test compounds (1 µM) were incubated individually in human (pool of 50, mixed gender), rat (pool of 711, male Sprague Dawley), and mouse (pool of 1,634, male CD1) liver microsomes (Xenotech, Kansas, USA) to a final protein concentration of 0.4 mg/mL, suspended in 0.1 M phosphate buffer (pH 7.4). Incubations were started by the addition of NADPH (1 mM) as a cofactor and shaken for 30 min at 37°C. The reactions were quenched by the addition of 300 µL of ice-cold acetonitrile containing an internal standard (carbamazepine, 0.0236 µg/mL) and centrifuged. The supernatant was transferred to a fresh 96-well plate and analyzed by liquid chromatography-tandem mass spectrometry (LC-MS/MS) (Agilent Rapid Resolution HPLC, AB SCIEX 4500 MS). The relative loss of the parent compound over time was monitored, and plots (concentration vs time) were prepared per compound to determine the first-order rate constant for compound depletion. This was in turn used to calculate half-life, in vitro intrinsic clearance (Clint), and in vivo hepatic extraction ratio ([43]).

SMILES: CCN(CC)Cc1cc(Nc2ccnc3cc(Cl)ccc23)ccc1O [AQ, amodiaquine, reference compound]
IC50 ([1]; uRBC 1.0% hematocrit): 3.9 nM
IC50 ([1]; uRBC 2.5% hematocrit): 3.6 nM
Fold changes (24 h/0.16 h) ([1]; uRBC 1.0% hematocrit): 0.76
Fold changes (24 h/0.16 h) ([1]; uRBC 2.5% hematocrit): 0.91

SMILES: O=C1C(O)=C([C@H]2CC[C@H](c3ccc(Cl)cc3)CC2)C(=O)c2ccccc21 [ATO, atovaquone, reference compound]
delay of recrudescence in the QSA versus DHA alone [2]: up to 10 days
IC50 ([3]; viability at 24 h, read-out: IC50, 24 h): > 600 nM
IC50 ([3]; viability at 48 h, read-out: IC50, 48 h): 5.3 nM
IC50 ([3]; viability at 72 h, read-out: IC50, 72 h): 0.78 nM
Conclusion (speed of antiparasitic activity) ([3]; from IC50 at 24, 48, 72 h): Slow-acting

half-life at 1 µM ([4]; both sexes, pH 7.4, human liver microsomes): 7 min
microsomal CLint at 1 µM ([4]; both sexes, human liver microsomes, pH 7.4): 250 µL/min/mg
Drug remaining after 30 min ([4]; human liver microsomes): 5%
half-life at 1 µM ([4]; male, CD1, pH 7.4, mouse liver microsomes): 4 min
microsomal CLint at 1 µM ([4]; male, CD1, mouse liver microsomes, pH 7.4): 429 µL/min/mg
half-life at 1 µM ([4]; male, Sprague Dawley, pH 7.4, rat liver microsomes): 4 min
microsomal CLint at 1 µM ([4]; male, Sprague Dawley, rat liver microsomes, pH 7.4): 442 µL/min/mg
Drug remaining after 30 min ([4]; mouse liver microsomes): 0.6%
Drug remaining after 30 min ([4]; rat liver microsomes): 0.5%
SMILES: C[C@H]1[C@H](OC(=O)CCC(=O)O)O[C@@H]2O[C@@]3(C)CC[C@H]4[C@H](C)CC[C@@H]1[C@@]24OO3 [Artesunate, artesunate, reference compound]
